Patent US20200131669A1, “CYCLIC PEPTIDE COMPOUND HAVING HIGH MEMBRANE PERMEABILITY, AND LIBRARY CONTAINING SAME” (Chugai Seiyaku Kabushiki Kaisha, priority 2017, published 2020)
Starred links: 1 amine or outer side, 2 acyl side, 3 side chain; linkers in the order of their positions; H or OH if unused. Positions of bridges follow the written chain, without caps; N, C: chain ends. Non-standard residues stand in square brackets, D forms with d. Residues, ends and D or L forms follow the SMILES beside them. ξ: configuration not given here. *: point of attachment. X7 = CC(C(=O)[C@H](Cc1ccccc1)N(C)[*:1])[C@@H](Cc1ccccc1)C(=O)[*:2]; Phe(4-CHF2) = N[C@@H](Cc1ccc(C(F)F)cc1)C(=O)O; NMePhe(3-Cl) = CN[C@@H](Cc1cccc(Cl)c1)C(=O)O; Tyr(3-F) = N[C@@H](Cc1ccc(O)c(F)c1)C(=O)O; X14 = O=C([C@H](CCc1ccccc1Cl)N[*:1])[*:2]; NMeW = CN[C@@H](Cc1c[nH]c2ccccc12)C(=O)O; X5 = O=C(C(CCc1noc(=O)[nH]1)N[*:1])[*:2]; NMeF = CN[C@@H](Cc1ccccc1)C(=O)O; NMeGABA = CN(CCCC(=O)[*:2])[*:1]; NMeI = CC[C@H](C)[C@H](NC)C(=O)O; hPhe = N[C@@H](CCc1ccccc1)C(=O)O; ξThr(3R) = C[C@@H](O)C(N)C(=O)O; NMeD = CN[C@@H](CC(=O)O)C(=O)O; NMeL = CN[C@@H](CC(C)C)C(=O)O; Propyl(2R-OH) = C[C@@H](O)C*; NMeV = CN[C@H](C(=O)O)C(C)C; NMeAbu = CC[C@H](NC)C(=O)O; NMeA = CN[C@@H](C)C(=O)O; Piperidide = C1CCN(*)CC1; NBuGly = CCCCNCC(=O)O; Bn = c1ccc(C*)cc1; Sar = CNCC(=O)O; tBu = CC(C)(C)*

Assay: Caco-2 membrane permeability, improved method as used in the following Examples (96-well, 20 to 24 h preincubation)
Type: in vitro ADME
Details: human, Caco-2, Caco-2
Procedure, shortened: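 Papp (cm/sec) was derived from LC/MS of basal samples collected 180 min after apical dosing in FaSSIF/HBSS pH 6.0 with 1% DMSO, against a basal HBSS pH 7.4 receiver containing 4% BSA. Three-week Caco-2 cultures were first preincubated with compound in DMEM+FaSSIF at 37 °C for 20–24 h.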

| SMILES | Papp A→B at 180 min [×10⁻⁶ cm/s] |
| --- | --- |
| CC(C)C[C@@H]1NC(=O)[C@H](C)N(C)C(=O)C[C@@H](C(=O)N2CCCCC2)NC(=O)[C@H](CC(C)C)N(C)C(=O)CN(C)C(=O)[C@H]([C@@H](C)O)NC(=O)[C@H](C(C)C)N(C)C(=O)[C@H](CC(C)C)N(C)C(=O)[C@H](Cc2ccc(C(F)F)cc2)NC(=O)[C@H](CC(C)C)N(C)C(=O)[C@H](CC(C)C)N(C)C1=O [pd474] ([NMeA]L[NMeL][NMeL][Phe(4-CHF2)][NMeL][NMeV]T[Sar][NMeL]D-Piperidide; lactam N-11) | 4.5 |
| CC(C)C[C@H]1C(=O)N[C@@H](CCc2ccccc2)C(=O)N(C)[C@@H](Cc2ccccc2)C(=O)N(C)[C@@H](CC(C)C)C(=O)N[C@H](C(=O)N2CCCCC2)CC(=O)N[C@H](C(C)C)C(=O)N(C)[C@@H](C)C(=O)N[C@@H](C(C)C)C(=O)N(C)[C@@H](CC(C)C)C(=O)N[C@@H]([C@@H](C)O)C(=O)N(C)CC(=O)N1C [pd313] ([dV][NMeA]V[NMeL]T[Sar][NMeL][hPhe][NMeF][NMeL]D-Piperidide; lactam N-11) | 2.5 |
| CC(C)C[C@H]1C(=O)N[C@H](C(=O)N2CCCCC2)CC(=O)N(C)[C@@H](C)C(=O)N[C@@H](CCc2ccccc2Cl)C(=O)N(C)[C@@H](CC(C)C)C(=O)N(C)[C@@H](CC(C)C)C(=O)N[C@@H](C)C(=O)N(C)[C@@H](Cc2ccccc2)C(=O)N(C)[C@@H](C(C)C)C(=O)N[C@@H]([C@@H](C)O)C(=O)N(C)CC(=O)N1C [pd353] ([NMeA][X14][NMeL][NMeL]A[NMeF][NMeV]T[Sar][NMeL]D-Piperidide; lactam N-11) | 1.4 |
| CC(C)C[C@H]1C(=O)N[C@@H]([C@@H](C)O)C(=O)N(C)CC(=O)N(C)[C@@H](Cc2ccccc2)C(=O)N(C)[C@@H](CC(C)C)C(=O)N[C@@H](COC(C)(C)C)C(=O)N(C)[C@@H](CC(C)C)C(=O)N[C@H](C(=O)N2CCCCC2)CC(=O)N(C)CC(=O)N(C)[C@@H](Cc2ccccc2)C(=O)N[C@@H](COCc2ccccc2)C(=O)N1C [pd369] ([Sar][NMeF]S(Bn)[NMeL]T[Sar][NMeF][NMeL]S(tBu)[NMeL]D-Piperidide; lactam N-11) | 3 |
| CC[C@H](C)[C@H]1C(=O)N[C@@H](COC[C@@H](C)O)C(=O)N(C)CC(=O)N(C)[C@@H](CC(C)C)C(=O)N[C@H](C(=O)N2CCCCC2)CC(=O)N(C)[C@@H](C)C(=O)N[C@@H](CC(C)C)C(=O)N(C)[C@@H](CC(C)C)C(=O)N(C)[C@@H](Cc2ccccc2)C(=O)N[C@@H](CC(C)C)C(=O)N(C)[C@@H](Cc2ccccc2)C(=O)N1C [pd494] ([NMeA]L[NMeL][NMeF]L[NMeF][NMeI]S(Propyl(2R-OH))[Sar][NMeL]D-Piperidide; lactam N-11) | 5.2 |

Same assay, conditions: human, Caco-2, Caco-2 (cm/sec)

| SMILES | Papp A→B at 180 min [×10⁻⁶ cm/s] |
| --- | --- |
| CC(C)C[C@@H]1NC(=O)[C@H](Cc2ccccc2)N(C)C(=O)[C@H](COC(C)(C)C)NC(=O)[C@H](Cc2ccccc2)N(C)C(=O)[C@H](C)N(C)C(=O)[C@H](CC(C)C)N(C)C(=O)[C@@H](C)NC(=O)C[C@@H](C(=O)N2CCCCC2)N(C)C(=O)[C@H](Cc2ccccc2)N(C)C(=O)[C@H]([C@@H](C)O)NC(=O)[C@H](C(C)C)N(C)C1=O [pd208] ([dA][NMeL][NMeA][NMeF]S(tBu)[NMeF]L[NMeV]T[NMeF][NMeD]-Piperidide; lactam N-11) | 1.7 |
| CC(C)C[C@H]1C(=O)N[C@H](C(=O)N2CCCCC2)CC(=O)N(C)[C@@H](C)C(=O)N[C@@H](Cc2ccc(O)c(F)c2)C(=O)N(C)[C@@H](CC(C)C)C(=O)N(C)[C@@H](CC(C)C)C(=O)N[C@@H](C(C)C)C(=O)N(C)[C@@H](Cc2ccccc2)C(=O)N(C)[C@@H](CC(C)C)C(=O)N[C@@H]([C@@H](C)O)C(=O)N(C)CC(=O)N1C [pd122] ([NMeA][Tyr(3-F)][NMeL][NMeL]V[NMeF][NMeL]T[Sar][NMeL]D-Piperidide; lactam N-11) | 0.46 |
| CC(C)C[C@H]1C(=O)N[C@@H](COC(C)(C)C)C(=O)N(C)[C@@H](Cc2ccccc2)C(=O)N(C)[C@@H](CC(C)C)C(=O)N(C)[C@H](C(=O)N2CCCCC2)CC(=O)N(C)[C@@H](C)C(=O)N(C)[C@@H](Cc2cccc(Cl)c2)C(=O)N[C@@H](C(C)C)C(=O)N(C)[C@@H](C(C)C)C(=O)N[C@@H]([C@@H](C)O)C(=O)N(C)CC(=O)N1C [pd169] ([NMeA][NMePhe(3-Cl)]V[NMeV]T[Sar][NMeL]S(tBu)[NMeF][NMeL][NMeD]-Piperidide; lactam N-11) | 3.8 |
| CC(C)C[C@@H]1NC(=O)[C@H](C)N(C)C(=O)C[C@@H](C(=O)N2CCCCC2)NC(=O)[C@H](CC(C)C)N(C)C(=O)CN(C)C(=O)[C@H]([C@@H](C)O)NC(=O)[C@H](Cc2ccccc2)N(C)C(=O)[C@H](Cc2ccccc2)N(C)C(=O)[C@H](CC(C)C)NC(=O)[C@H](Cc2ccccc2)N(C)C(=O)[C@H](CC(C)C)N(C)C1=O [pd204] ([NMeA]L[NMeL][NMeF]L[NMeF][NMeF]T[Sar][NMeL]D-Piperidide; lactam N-11) | 2 |
| CC(C)C[C@@H]1NC(=O)[C@H]([C@@H](C)O)NC(=O)[C@H](CC(C)C)N(C)C(=O)C[C@@H](C(=O)N2CCCCC2)NC(=O)[C@H](COC(C)(C)C)NC(=O)[C@H](Cc2ccccc2)NC(=O)[C@H](C)N(C)C(=O)[C@H](Cc2ccccc2)NC(=O)CN(C)C(=O)[C@H](Cc2ccccc2)N(C)C(=O)[C@H](Cc2ccccc2)N(C)C1=O [pd245] ([NMeL]TL[NMeF][NMeF][Sar]F[NMeA]FS(tBu)D-Piperidide; lactam N-11) | 0.019 |
| CC[C@H](C)[C@@H]1NC(=O)[C@H](CC(C)C)N(C)C(=O)CCCN(C)C(=O)C[C@@H](C(=O)N2CCCCC2)NC(=O)[C@H](CC(C)C)N(C)C(=O)[C@H](CC(C)C)N(C)C(=O)[C@H]([C@@H](C)O)NC(=O)[C@H](CC(C)C)N(C)C(=O)[C@H](COC(C)(C)C)NC(=O)[C@H](Cc2c[nH]c3ccccc23)N(C)C(=O)[C@H](Cc2ccccc2)N(C)C1=O [pd107] ([NMeGABA][NMeL]I[NMeF][NMeW]S(tBu)[NMeL]T[NMeL][NMeL]D-Piperidide; lactam N-11) | 0.17 |

Same assay, conditions: human, Caco-2, Papp; Table 23-1, sequences where ARC = 3; read-out: Caco-2

| SMILES | Papp A→B at 180 min [×10⁻⁶ cm/s] |
| --- | --- |
| CC(C)C[C@@H]1NC(=O)[C@H](Cc2ccccc2)N(C)C(=O)[C@@H]2CCCN2C(=O)C[C@@H](C(=O)N2CCCCC2)N(C)C(=O)[C@H](Cc2ccccc2)C(C)C(=O)[C@H](Cc2ccccc2)N(C)C(=O)[C@H](COC(C)(C)C)NC(=O)[C@H](C(C)C)N(C)C(=O)CN(C)C(=O)[C@H]([C@@H](C)O)NC(=O)[C@H](CC(C)C)N(C)C1=O (stereo partly shown) [pd196] (P[NMeF]L[NMeL]T[Sar][NMeV]S(tBu)[X7][NMeD]-Piperidide; lactam N-10) | 4 |

Same assay, conditions: human; Papp, Caco-2 membrane permeability, improved method; read-out: Caco-2

| SMILES | Papp A→B at 180 min [×10⁻⁶ cm/s] |
| --- | --- |
| CCCCN1CC(=O)N(C)[C@@H](CC(C)C)C(=O)N[C@H](C(=O)N2CCCCC2)CC(=O)N(C)[C@@H](CC)C(=O)N[C@@H](CC(C)C)C(=O)N(C)[C@@H](CC(C)C)C(=O)N(C)[C@@H](Cc2ccccc2)C(=O)NC(CCc2noc(=O)[nH]2)C(=O)N(C)[C@@H](CC(C)C)C(=O)N(C)[C@@H](CC(C)C)C(=O)NC([C@@H](C)O)C1=O (stereo partly drawn) [pd487] ([NMeAbu]L[NMeL][NMeF][X5][NMeL][NMeL][ξThr(3R)][NBuGly][NMeL]D-Piperidide; lactam N-11) | 2.2 |
